Reference: patent publication US6675105B2, “Structure-based identification of candidate compounds using three dimensional structures and models of Fc receptors” (Ilexus Pty Limited, priority 1998, dated 2004)

Columns and labels:
[1] = system: monomeric human immunoglobulin IgG3; test: BIAcore binding of PsFcγRIIa to immobilized monomeric human IgG3; conditions: two site binding fit, 22° C., HBS pH 7.4
Procedure: (§1) Analysis of the interaction between PsFcγRIIa and monomeric immunoglobulin was performed using a BIAcorea 2000 biosensor (available from Pharmacia Biotech, Uppsala, Sweden) at about 22° C. in Hepes buffered saline (HBS; 10 mM Hepes [N-2-hydroxyethylpiperazine-N′-2-ethanesulfonic acid, available from Commonwealth Serum Laboratories, Parkville, Australia], pH 7.4, 150 mM NaCl, 3.4 mM EDTA and 0.005% Surfactant, available from Pharmacia). About 4000 to about 6000 response units (RU) of monomeric human immunoglobulin subclasses IgG1, IgG2, IgG3, and IgE (50 μg/ml of each) were covalently coupled to separate carboxymethylated dextran surface of each CM5 sensor-chips (available from BIAcore, Uppsala, Sweden) using a amine coupling kit (available from BIAcore), according to manufacturer's methods. A series of PsFcγRIIa concentrations (about 0.001 to about 1 mg/ml protein) was injected over each sensor-chip surface for about 1 minute at about 20 μl/min followed by about 3 minute dissociation phase. Following administration of the protein, the immunoglobulin surface was regenerated on each chip using a buffer containing 50 mM diethylamine pH 11.5, and 1 M NaCl. […]

[2] = system: monomeric human immunoglobulin IgG1; test: BIAcore binding of PsFcγRIIa to immobilized monomeric human IgG1; conditions: 22° C., HBS pH 7.4
monomeric human immunoglobulin IgG1, sequence (P01857 99-223 limits assumed): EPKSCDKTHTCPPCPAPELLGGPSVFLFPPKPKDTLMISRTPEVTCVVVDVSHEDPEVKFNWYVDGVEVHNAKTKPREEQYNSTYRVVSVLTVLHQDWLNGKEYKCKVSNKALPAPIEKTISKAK
Procedure: as §1

monomeric human immunoglobulin IgG3, sequence (P01860 99-377 isoform P01860-1 limits assumed): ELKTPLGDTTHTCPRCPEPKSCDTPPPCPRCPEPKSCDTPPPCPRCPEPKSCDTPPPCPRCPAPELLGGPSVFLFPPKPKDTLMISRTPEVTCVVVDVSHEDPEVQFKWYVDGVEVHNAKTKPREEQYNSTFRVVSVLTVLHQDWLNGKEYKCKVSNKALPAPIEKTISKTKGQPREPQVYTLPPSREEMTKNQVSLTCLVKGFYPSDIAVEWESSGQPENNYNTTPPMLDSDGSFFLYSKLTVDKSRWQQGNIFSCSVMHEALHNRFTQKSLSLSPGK

## PsFcγRIIa: recombinant soluble human FcγRIIa protein from baculovirus-infected Sf-21 cells; two species, SEQ ID NO:3 and SEQ ID NO:12
[1]; at 50% of the sites
  affinity for IgG3: about 2.7×10^6 M^−1
[1]; at the remaining 50% of the sites
  affinity for IgG3: about 1.2×10^4 M^−1
[2]; at about 90% of the ligand binding sites
  affinity of PsFcγRIIa for IgG1: about 2.1×10^6 M^−1
[2]; at the remaining 10% of sites
  affinity of PsFcγRIIa for IgG1: about 2.3×10^4 M^−1
